# Source: patent US8911751B2, “Compositions for nasal delivery” (Yissum Research Development Company of the Hebrew …, priority 2005, dated 2014)
# Tested on: Female C57Bl/6 mice
# Assay: Pentobarbitone-induced sleeping in mice (Example 34)
# Format: in vivo
# Settings: oral Brotizolam 0.25 mg/kg, 5 minutes before sleep induction; compared to control
smiles,measurement,value
"Cc1nnc2n1-c1sc(Br)cc1C(c1ccccc1Cl)=NC2 [Oral Brotizolam, 8-bromo-6-(o-chlorophenyl)-1-methyl-4H-s-triazolo[3,4c]thieno[2,3e]1,4-diazepine]",latency (onset of the loss of righting reflex),no significant effect
same,total sleeping time (TST),no significant effect
